Paper PMC10035389, “Safety, Tolerability, and Pharmacokinetics of TAK-931, a Cell Division Cycle 7 Inhibitor, in Patients with Advanced Solid Tumors: A Phase I First-in-Human Study” (Cancer Research Communications, 2022)

What was measured:
Assay type in all cases: in vivo, human
[1] = test system: patients with advanced solid tumors; assay: Dose-limiting toxicities, MTD and RP2D determination (BLRM-guided dose escalation)
Excerpt: This was a phase I, open-label, dose-escalation study of single-agent TAK-931. Dose escalation of TAK-931 was cohort based with an adaptive design using Bayesian logistic regression modeling (BLRM) with pharmacokinetic guidance. BLRM also guided MTD estimation from the second dose. Patients were enrolled in one of four dosing schedules (A, B, D, or E; Supplementary Fig. S1) to receive TAK-931. Two additional schedules were planned (C and F) but no patients were enrolled. Schedule A included an initial accelerated escalation phase. TAK-931 was administered once daily for 14 days in 21-day cycles starting at 30 mg, which doubled until a cycle 1 dose-limiting toxicity (DLT) was observed, when 2 patients experienced grade ≥2 treatment-related toxicity, or when maximum geometric mean plasma concentration (Cmax) for the cohort reached or exceeded 800 ng/mL [threshold for off-target adverse effects (hypotension) in animal toxicology studies]; then dose escalation transitioned to modified Fibonacci escalation steps. In schedule B (based on experience with schedule A), patients received TAK-931 once daily or twice daily for 7 days on, 7 days off in a 28-day cycle starting at 60 mg. In schedule D, patients received TAK-931 once daily starting at 20 mg in 21-day cycles; BLRM was not applied but further adjustments were dependent on observed safety, pharmacokinetics, and pharmacodynamics. In schedule E, patients received TAK-931 once daily for 2 days on, 5 days off starting at 100 mg in 21-day cycles. A safety expansion was permitted once MTD had been determined. Prophylactic growth factors were permitted in all schedules to manage severe and/or febrile neutropenia. TAK-931 treatment continued until unacceptable toxicity, disease progression, or patient withdrawal.
(§1) DLTs included: cycle 1 grade ≥3 hematologic and non-hematologic events or grade 2 non-hematologic events considered by the investigator to be TAK-931-related, grade 2 ejection fraction decrease, >2 weeks delay in initiating cycle 2 (1 week for schedules D and E), and >50% TAK-931 dose reduction in cycle 1 due to treatment-related adverse events (AEs; see Supplementary Materials and Methods for full DLT criteria). Toxicity was evaluated by NCI Common Terminology Criteria for Adverse Events (version 4.03). Tumor response was measured using the RECIST (version 1.1) ([16]). Serial blood samples for pharmacokinetic analysis were collected during cycle 1 on days 1 and 7 (schedule B), 1 and 8 (schedules A and D), or 1 and 9 (schedule E). Pharmacokinetic parameters were estimated from concentration–time profiles using noncompartmental methods with WinNonlin® Phoenix™ version 8.1 (Certara, Princeton, NJ). pMCM2 was detected semiquantitatively by IHC of histologic sections of formalin-fixed, paraffin-embedded skin and tumor biopsies using anti-pMCM2 (3378-1, Epitomics Inc.; ref. [15]). Quantitative image analysis determined pMCM2 levels as “histologic score nuclei (H-score).” Skin punch biopsies (2–4 mm) were obtained during screening or predose on cycle 1, day 1 and for patients in schedules A, B, and D, postdose on any drug dosing day after 3 consecutive dosing days in cycle 1. A postdose skin biopsy was obtained on day 9 in schedule E. Fresh tumor biopsy pairs were collected predose and postdose on any dosing day after the completion of 3 consecutive dosing days in cycle 1 from patients who received doses considered to have biological effect.
A dose-limiting toxicity (DLT) was defined as any of the following events that occurred during cycle 1 and were considered by the investigator to be related to TAK-931:
Grade 4 neutropenia (ANC <500 cells/mm^3) lasting >7 consecutive days; if myeloid growth factors were used, the event was considered a DLT irrespective of the duration
Grade ≥3 neutropenia (ANC <1000 cells/mm^3) with fever and/or infection, where fever was defined as a single temperature of >38.3°C or sustained temperature of ≥38°C for >1 hour […]

[2] = test system: skin phosphorylated MCM2 (pMCM2; a CDC7 substrate); assay: pMCM2 IHC (H-score) in skin punch biopsies
Excerpt: The primary objectives were to evaluate safety, tolerability, and to identify the MTD of TAK-931. Secondary objectives were to characterize the pharmacokinetics of TAK-931, assess pharmacodynamic effects of TAK-931 by measuring basal and postdose levels of skin phosphorylated MCM2 (pMCM2; a CDC7 substrate), and assess preliminary clinical activity of TAK-931. An exploratory objective was to assess the pharmacodynamic effect of TAK-931 in fresh tumor biopsies after multiple doses of TAK-931 that were considered to have biological effect.
as §1
(§2) The safety population included patients who received ≥1 dose of TAK-931. The pharmacodynamic-evaluable population comprised patients from the safety population with a baseline and ≥1 additional postbaseline biopsy sample that was suitable for pMCM2 analysis. The pharmacokinetic-evaluable population included patients with sufficient dosing and TAK-931 concentration–time data to estimate pharmacokinetic parameters. The response-evaluable population included patients in the safety population with measurable disease at baseline and ≥1 postbaseline response assessment.

[3] = test system: advanced solid tumors; assay: Tumor response by RECIST version 1.1; design: key to Best response, individual patient: PD: progressive disease; PR: partial response; SD: stable disease; settings: for Duration of SD / Duration PR maintained: 1 patient
Procedure: as §1, §2

Q: How did the “Recommended phase II dose” value ([1]; once daily days 1–14 in 21-day cycles) turn out when Cc1[nH]ncc1-c1cc2nc([C@@H]3CC4CCN3CC4)[nH]c(=O)c2s1 [TAK-931, simurosertib] was run?
A: 50 mg

Q: What about the “Patients with DLTs (grade 4 neutropenia)” value ([1]; schedule A) of the same compound?
A: 2 patients

Q: And the “Patients with DLT of grade 4 neutropenia lasting >3 days” value ([1]; schedule A, 60 mg)?
A: 2 of 3

Q: What about the “Maximum tolerated dose (MTD)” value ([1]; schedule A: once daily days 1–14 of 21-day cycle) of the same compound?
A: 50 mg

Q: And the “Patients with DLT of grade 3 febrile neutropenia” value ([1]; schedule B)?
A: 3 n

Q: And the “Patients with DLT of grade 4 neutropenia” value ([1]; schedule B)?
A: 1 n

Q: And the “Patients with DLTs” value ([1]; schedule B)?
A: 4 patients

Q: And the “Patients with DLT of grade 3 febrile neutropenia” value ([1]; schedule B, 80 mg)?
A: 2 of 9

Q: And the “Patients with DLT of grade 4 neutropenia lasting >7 days” value ([1]; schedule B, 100 mg)?
A: One of 6

Q: And the “Patients with DLT of grade 3 febrile neutropenia” value ([1]; schedule B, 120 mg)?
A: one of six

Q: What about the “Maximum tolerated dose (MTD)” value ([1]; schedule B: days 1–7 and 15–21 of 28-day cycle) of the same compound?
A: 100 mg

Q: And the “Patients with DLT of grade 4 neutropenia” value ([1]; schedule D, 40 mg)?
A: 1 patient

Q: And the “Patients with DLT of grade 3 febrile neutropenia” value ([1]; schedule E, 150 mg)?
A: a second patient

Q: And the “Patients with DLT of grade 4 neutropenia” value ([1]; schedule E, 150 mg)?
A: 1 patient

Q: And the “Skin pMCM2 Mean H-score (StDev), Cycle 1, day 8” value (from here on “Skin pMCM2 Mean H-score (StDev)”) ([2]; Schedule A (30 mg), n = 3, baseline mean H-score 18.47 (8.45))?
A: 10.93 (6.57)

Q: What about the “% of pMCM2 inhibition (Change from baseline), skin” value ([2]; Schedule A (30 mg), n = 3, cycle 1, day 8) of the same compound?
A: 40.8%

Q: And the “Skin pMCM2 Mean H-score (StDev)” value ([2]; Schedule A (40 mg), n = 3, baseline mean H-score 19.53 (3.78))?
A: 12.87 (12.19)

Q: And the “% of pMCM2 inhibition (Change from baseline), skin” value ([2]; Schedule A (40 mg), n = 3, cycle 1, day 8)?
A: 34.1%

Q: And the “Skin pMCM2 Mean H-score (StDev)” value ([2]; Schedule A (50 mg), n = 14, baseline mean H-score 10.50 (5.85))?
A: 3.76 (5.42)

Q: What about the “% of pMCM2 inhibition (Change from baseline), skin” value ([2]; Schedule A (50 mg), n = 14, cycle 1, day 8) of the same compound?
A: 64.2%

Q: What about the “Skin pMCM2 Mean H-score (StDev)” value ([2]; Schedule A (60 mg), n = 3, baseline mean H-score 10.93 (1.94)) of the same compound?
A: 1.00 (0.60)

Q: What about the “% of pMCM2 inhibition (Change from baseline), skin” value ([2]; Schedule A (60 mg), n = 3, cycle 1, day 8) of the same compound?
A: 90.9%

Q: What about the “Skin pMCM2 Mean H-score (StDev)” value ([2]; Schedule B (60 mg), n = 3, baseline mean H-score 4.40 (2.96)) of the same compound?
A: 0.67 (0.46)

Q: And the “Skin pMCM2 Mean H-score (StDev)” value ([2]; Schedule B (80 mg), n = 9, baseline mean H-score 12.72 (2.02))?
A: 3.54 (6.19)

Q: And the “% of pMCM2 inhibition (Change from baseline), skin” value ([2]; Schedule B (80 mg), n = 9, cycle 1, day 8)?
A: 72.2%

Q: What about the “% of pMCM2 inhibition (Change from baseline), skin” value ([2]; Schedule D (20 mg), baseline n = 6, cycle 1, day 8 n = 4) of the same compound?
A: 77.1%

Q: And the “Skin pMCM2 Mean H-score (StDev)” value ([2]; Schedule D (20 mg), baseline n = 6, cycle 1, day 8 n = 4, baseline mean H-score 22.05 (24.52))?
A: 5.05 (2.90)

Q: What about the “Skin pMCM2 Mean H-score (StDev)” value ([2]; Schedule D (30 mg), n = 6, baseline mean H-score 33.32 (23.43)) of the same compound?
A: 6.43 (5.17)

Q: And the “% of pMCM2 inhibition (Change from baseline), skin” value ([2]; Schedule D (30 mg), n = 6, cycle 1, day 8)?
A: 80.7%

Q: What about the “Duration of SD” value ([3]; cervical cancer, schedule A (50 mg)) of the same compound?
A: 11.33 months

Q: And the “Duration of SD” value ([3]; cervical cancer, schedule D (40 mg))?
A: 15.24 months

Q: What about the “Duration PR maintained” value ([3]; cervical squamous cell cancer, schedule A 60 mg) of the same compound?
A: 2.2 months

Q: What about the “Duration PR maintained” value ([3]; duodenal squamous cell cancer, schedule A 30 mg) of the same compound?
A: 2.1 months

Q: And the “Duration PR maintained” value ([3]; esophageal cancer, schedule B 100 mg)?
A: 4.2 months

Q: And the “Duration PR maintained” value ([3]; esophageal squamous cell cancer, schedule A 50 mg)?
A: 2.7 months

Q: And the “Duration of SD” value ([3]; thymic cancer, schedule A (50 mg))?
A: 10.45 months

Q: What about the “CR (complete response) as best response” value ([3]; Schedule A n = 24) of the same compound?
A: 0 n (%) [95% CI]

Q: What about the “CR (complete response) as best response” value ([3]; Schedule B n = 23) of the same compound?
A: 0 n (%) [95% CI]

Q: And the “CR (complete response) as best response” value ([3]; Schedule D n = 17)?
A: 0 n (%) [95% CI]

Q: What about the “ORR (overall response rate), investigator's assessment” value ([3]; Schedule D n = 17) of the same compound?
A: 0 n (%) [95% CI]

Q: And the “PR (partial response) as best response” value ([3]; Schedule D n = 17)?
A: 0 n (%) [95% CI]

Q: And the “CR (complete response) as best response” value ([3]; Schedule E n = 11)?
A: 0 n (%) [95% CI]

Q: What about the “ORR (overall response rate), investigator's assessment” value ([3]; Schedule E n = 11) of the same compound?
A: 0 n (%) [95% CI]

Q: And the “PR (partial response) as best response” value ([3]; Schedule E n = 11)?
A: 0 n (%) [95% CI]

Q: What about the “Patients achieving a partial response” value ([3]; overall) of the same compound?
A: 5 patients

Q: What about the “Patients with best response of SD” value ([3]; overall) of the same compound?
A: 28 patients

Q: What about the “Share of patients with SD or PR having esophageal, thymic, or cervical cancer” value ([3]; overall) of the same compound?
A: 39%

Q: What about the Median progression-free survival ([3]; overall, 95% confidence interval, 1.94–3.06) of the same compound?
A: 2.2 months

Q: What about the “Overall response rate (ORR)” value ([3]; schedule A) of the same compound?
A: 13%

Q: What about the “Best response, individual patient” value ([3]; schedule A, 30 mg, cancer type Duodenal) of the same compound?
A: PR

Q: And the “Best response, individual patient” value ([3]; schedule A, 30 mg, cancer type Pancreatic)?
A: SD

Q: And the “Best response, individual patient” value ([3]; schedule A, 30 mg, cancer type Rectal)?
A: PD

Q: What about the “Best response, individual patient” value ([3]; schedule A, 40 mg, cancer type Breast) of the same compound?
A: PD

Q: What about the “Best response, individual patient” value ([3]; schedule A, 40 mg, cancer type Rectal) of the same compound?
A: PD

Q: What about the “Best response, individual patient” value ([3]; schedule A, 40 mg, cancer type Unknown) of the same compound?
A: SD

Q: And the “Best response, individual patient” value ([3]; schedule A, 60 mg, cancer type Cervical)?
A: PR

Q: And the “Best response, individual patient” value ([3]; schedule A, 60 mg, cancer type Ovarian)?
A: SD

Q: And the “Best response, individual patient” value ([3]; schedule A, 60 mg, cancer type Pancreatic)?
A: SD

Q: What about the “Overall response rate (ORR)” value ([3]; schedule B) of the same compound?
A: 9%
